Experiments:
[1] = test system: formalin-induced inflammatory pain; assay: formalin-induced mouse inflammatory pain model; assay type: in vivo, ICR mice; settings: phase I and phase II
Procedure: The formalin test is a classical inflammatory pain model which represents somatic pain. Intraplantar injection of formalin results in a typical two-stage nociceptive behavior, which is characterized by licking and biting of the injected paw. The first phase (0~10 min) mainly reflects nociceptive pain, while the second phase (11~60 min) represents the inflammatory responses. In our study, we tested the effects of (−)-NRG-DM on formalin-induced inflammatory pain in mice. (−)-NRG-DM at 30 mg/kg and 50 mg/kg body weight were individually intraperitoneally administrated 30 min before injection of 1% formalin solution.
Adult male ICR mice weighing 20 ± 2 g were randomly divided into 3 groups (n = 10 for each group) and acclimatized in a transparent observation chamber for at least 30 min before the experiment. Mice were intraperitoneally administrated with vehicle or (−)-NRG-DM (30 or 50 mg/kg) 30 min prior to formalin injection. Then, 1% formalin solution (20 μL per site) was subcutaneously injected into the plantar of the left hind paw to induce acute inflammatory pain. Immediately, mice were put back into the observation chambers. Nociception caused by formalin was assessed by scoring painful behaviors and licking time over a period of 60 min. […]

[2] = test system: motor coordination in mice; assay: rotarod test (motor impairment / neurotoxicity); assay type: in vivo, ICR mice
Procedure: To exclude possible non-specific muscle relaxant or sedative effects, the effects of (−)-NRG-DM on motor performance were evaluated in the rotarod test.
To determine the neurotoxicity effects of (−)-NRG-DM, the standardized rotarod test was conducted in male ICR mice weighted 20 ± 2 g. The mice were divided at random into 4 groups (n = 10 for each group). The mice were placed on a rotarod appliance (YLS-4C, Bio-will, Shanghai, China) with a rod of 3 cm diameter, rotating at a constant speed of 6 rpm. The day before the compound test, all mice were pre-trained and only the animals able to remain on the rod for at least 1 min every time in three consecutive trials (3 min) were retained. During the test, the mice were measured in the rotarod test 0.5 h and 1 h after intraperitoneal administration of (−)-NRG-DM. The animals unable to remain on the rod for 3 consecutive periods were considered motor coordination impaired.

[3] = test system: native Nav currents in DRG neurons; assay: whole-cell patch-clamp, native sodium currents in DRG neurons; assay type: cell-based, mouse
Procedure: A reduction in amplitudes of action potentials manifested that (−)-NRG-DM may inhibit native sodium currents, which are mainly involved in the rising phase of an action potential. To record native sodium currents in acutely isolated DRG neurons, a 50 ms test pulse depolarized to −20 mV from a holding potential of −90 mV was applied. […] To understand how (−)-NRG-DM inhibited Nav channels, the effects of 30 µM compound (−)-NRG-DM on Nav channel kinetics were further characterized. […] In contrast to the lack of effect on the Nav channel activation, (−)-NRG-DM caused a depolarization shift of the steady-state inactivation. The V1/2 value was shifted from −65.72 ± 1.74 mV to −55.34 ± 2.14 mV by 30 µM (−)-NRG-DM (Figure 6G).
Dorsal root ganglia (DRG) were dissected from male C57BL/6 mice aged 4~6 weeks. The ganglia were first cut into small pieces and then digested at 37 °C for 20 min in DMEM containing 1 mg/mL collagenase type I and 0.25 mg/mL trypsin (Sigma-Aldrich). Subsequently, the digested small fragments were terminated and resuspended with DMEM/F12 growth medium (Gibco) supplemented with 10% fetal bovine serum (FBS) (Gibco). Finally, the dissociated DRG neurons were seeded onto 24-well plates with poly-L-lysine-coated coverslips and placed in a 37 °C, 5% CO2 incubator for at least 1 h before electrophysiological experiments.

[4] = pharmacokinetic study, plasma concentration after intraperitoneal administration; assay type: in vivo, ICR mice
Procedure: The pharmacokinetic study was performed in male ICR mice weighted 20 ± 2 g. The mice were fasted for 12 h before intraperitoneal administration of (−)-NRG-DM at 50 mg/kg. Blood samples (0.5 mL) were collected at 0.5, 1, and 1.5 h from the abdominal aorta into the heparinized tubes after drug administration. The plasma was separated by centrifugation (11,000 rpm for 5 min) and then stored at −80 °C until analyzed. Plasma samples (20 μL) were treated with the addition of the internal standard solution (20 μL) and acetonitrile (300 μL), then vortexed for 15 min (1000 rpm, RT), and centrifuged of 15 min (3700 rpm, 4 °C). The supernatants were collected for analysis using LC−MS/MS. The data were processed using Analyst software version 1.6.3 (Sciex, ON, Canada).

[5] = target: Nav1.8 channel (Homo sapiens, UniProt Q9Y5Y9); assay: whole-cell patch-clamp, Nav1.8 stably expressed in HEK293 cells
Sequence of Nav1.8 channel (Q9Y5Y9 whole entry): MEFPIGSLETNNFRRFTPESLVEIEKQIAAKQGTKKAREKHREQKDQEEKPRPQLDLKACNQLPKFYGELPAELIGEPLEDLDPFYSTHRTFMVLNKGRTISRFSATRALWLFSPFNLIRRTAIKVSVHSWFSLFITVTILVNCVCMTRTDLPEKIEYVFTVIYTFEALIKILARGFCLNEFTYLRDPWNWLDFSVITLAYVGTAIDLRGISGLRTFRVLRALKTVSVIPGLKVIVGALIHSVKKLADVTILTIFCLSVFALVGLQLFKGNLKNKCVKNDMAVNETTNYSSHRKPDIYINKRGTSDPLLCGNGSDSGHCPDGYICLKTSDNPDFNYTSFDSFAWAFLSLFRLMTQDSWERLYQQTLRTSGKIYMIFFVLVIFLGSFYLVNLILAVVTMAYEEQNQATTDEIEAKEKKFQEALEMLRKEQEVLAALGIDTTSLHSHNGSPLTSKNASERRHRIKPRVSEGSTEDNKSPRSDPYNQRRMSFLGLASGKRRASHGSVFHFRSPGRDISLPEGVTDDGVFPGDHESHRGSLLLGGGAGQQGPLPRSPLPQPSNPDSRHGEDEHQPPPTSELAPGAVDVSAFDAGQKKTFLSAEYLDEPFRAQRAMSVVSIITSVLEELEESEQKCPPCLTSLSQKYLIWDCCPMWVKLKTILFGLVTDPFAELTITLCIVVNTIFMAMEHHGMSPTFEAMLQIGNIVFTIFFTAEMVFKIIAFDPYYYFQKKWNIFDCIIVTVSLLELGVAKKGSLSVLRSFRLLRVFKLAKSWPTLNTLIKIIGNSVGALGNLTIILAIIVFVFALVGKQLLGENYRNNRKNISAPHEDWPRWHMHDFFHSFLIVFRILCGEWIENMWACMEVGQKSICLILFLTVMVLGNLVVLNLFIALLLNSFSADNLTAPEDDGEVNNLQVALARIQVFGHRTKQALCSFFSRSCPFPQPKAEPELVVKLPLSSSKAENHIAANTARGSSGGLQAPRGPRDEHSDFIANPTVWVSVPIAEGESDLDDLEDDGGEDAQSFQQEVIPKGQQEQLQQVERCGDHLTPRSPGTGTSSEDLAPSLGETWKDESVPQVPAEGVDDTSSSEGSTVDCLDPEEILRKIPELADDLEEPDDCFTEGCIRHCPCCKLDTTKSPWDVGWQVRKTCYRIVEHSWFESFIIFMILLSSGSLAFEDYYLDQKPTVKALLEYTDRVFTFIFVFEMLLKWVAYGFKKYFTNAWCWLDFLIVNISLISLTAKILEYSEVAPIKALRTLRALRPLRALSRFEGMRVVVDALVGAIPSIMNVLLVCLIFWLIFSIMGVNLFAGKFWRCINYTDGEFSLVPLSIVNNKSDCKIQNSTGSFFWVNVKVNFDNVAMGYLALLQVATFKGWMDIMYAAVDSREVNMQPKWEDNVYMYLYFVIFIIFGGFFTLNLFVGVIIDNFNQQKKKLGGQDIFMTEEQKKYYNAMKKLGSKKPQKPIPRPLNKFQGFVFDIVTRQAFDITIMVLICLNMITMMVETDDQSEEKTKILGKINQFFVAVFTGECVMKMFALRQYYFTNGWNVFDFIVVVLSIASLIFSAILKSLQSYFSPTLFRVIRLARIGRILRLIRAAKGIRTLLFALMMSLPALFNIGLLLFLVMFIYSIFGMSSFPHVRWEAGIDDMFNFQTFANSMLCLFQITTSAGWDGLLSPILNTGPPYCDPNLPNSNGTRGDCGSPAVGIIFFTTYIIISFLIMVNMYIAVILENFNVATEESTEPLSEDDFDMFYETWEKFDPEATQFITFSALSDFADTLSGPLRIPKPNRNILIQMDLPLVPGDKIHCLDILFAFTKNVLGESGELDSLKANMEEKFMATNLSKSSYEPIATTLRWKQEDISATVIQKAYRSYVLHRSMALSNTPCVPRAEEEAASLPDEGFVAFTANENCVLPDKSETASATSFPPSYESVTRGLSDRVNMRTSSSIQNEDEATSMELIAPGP

COc1ccc([C@H]2CC(=O)c3c(O)cc(OC)cc3O2)cc1 [(−)-NRG-DM, (−)-naringenin 4′,7-dimethyl ether]
painful behaviors (licking time and pain score) ([1]; 30 mg/kg i.p. 30 min before 1% formalin): only had a significant influence in phase I
painful behaviors (licking time and overall pain score) ([1]; 50 mg/kg i.p. 30 min before 1% formalin): significantly attenuated painful behaviors
Fall nFall /nTest ([2]; 100 mg/kg i.p., 0.5 h): 0/10
Motor Impairment (%) ([2]; 100 mg/kg i.p., 0.5 h): 0%
Fall nFall /nTest ([2]; 100 mg/kg i.p., 1 h): 0/10
Motor Impairment (%) ([2]; 100 mg/kg i.p., 1 h): 0%
ability to remain on the rotating rod ([2]; 100 mg/kg, 200 mg/kg, or 400 mg/kg i.p.): no significant effects
Fall nFall /nTest ([2]; 200 mg/kg i.p., 0.5 h): 1/10
Motor Impairment (%) ([2]; 200 mg/kg i.p., 0.5 h): 10%
Fall nFall /nTest ([2]; 200 mg/kg i.p., 1 h): 0/10
Motor Impairment (%) ([2]; 200 mg/kg i.p., 1 h): 0%
Fall nFall /nTest ([2]; 400 mg/kg i.p., 0.5 h): 0/10
Motor Impairment (%) ([2]; 400 mg/kg i.p., 0.5 h): 0%
Fall nFall /nTest ([2]; 400 mg/kg i.p., 1 h): 0/10
Motor Impairment (%) ([2]; 400 mg/kg i.p., 1 h): 0%
signs of toxicity ([2]; 100, 200, 400 mg/kg i.p., during rotarod test (0.5 and 1 h) and 24 h after administration): no sign of toxicity
V1/2 of activation, total Nav currents ([3]; 30 μM, control −15.34 ± 0.58 mV): −15.23 ± 0.56 mV
V1/2 of steady-state inactivation, total Nav currents ([3]; 30 µM, control −65.72 ± 1.74 mV): −55.34 ± 2.14 mV
IC50 ([3]; Mus musculus, DRG neuron, n = 5): 34.78 ± 0.14 µM
reduction in INa ([3]; at plasma concentration from pharmacokinetic study (around 7 µM)): around 28%
plasma concentration ([4]; 0.5~1.5 h after i.p. injection at 50 mg/kg): around 7 µM
concentration at 0.5 h ([4]; male, ICR, mouse, ip, plasma, 50 mg/kg i.p., 0.5 h, mean ± SEM): 2290 ± 183 ng/mL
concentration at 1 h ([4]; male, ICR, mouse, ip, plasma, 50 mg/kg i.p., 1 h, mean ± SEM): 2220 ± 1250 ng/mL
concentration at 1.5 h ([4]; male, ICR, mouse, ip, plasma, 50 mg/kg i.p., 1.5 h, mean ± SEM): 717 ± 222 ng/mL
Concentration (μM/L) ([4]; plasma, 50 mg/kg i.p., 0.5 h, mean ± SEM): 7.64 ± 0.61 µM
Concentration (μM/L) ([4]; plasma, 50 mg/kg i.p., 1 h, mean ± SEM): 7.39 ± 4.17 µM
Concentration (μM/L) ([4]; plasma, 50 mg/kg i.p., 1.5 h, mean ± SEM): 2.39 ± 0.74 µM
inhibitory ratio ([5]; 30 µM): 44 ± 3%
IDrug/IControl ([5]; 30 μM, HEK293): 0.56 ± 0.03
V1/2 of steady-state inactivation of Nav1.8 ([5]; 30 µM, control −48.58 ± 0.67 mV): −53.37 ± 0.70 mV
